According to patent publication US12329722B2, “Finished pharmaceutical form with individual medicine dosing capability (embodiments) and methods of its production and use” (PSIMOS, INC., priority 2016, dated 2025):
One block for each compound: values may come before it.

Tests used:
Assay type in all cases: physicochemical
[1] = solubility in water/alcohol solutions; settings: water/alcohol solutions of the abovementioned concentrations
[2] = desorption of applied medicine from porous media to potable water; settings: 50 ml of potable water
[3] = quantity of medicine that can be applied on unit area of porous media with a jet printer; settings: fiberglass membrane made by Algstrem
Method: Using a jet printer with rechargeable cartridges the solution was applied on a 236.5 cm^2 specimen of media made from cellulose filtering material (size 21.5*1 1 cm^2, format Letter) with different printing qualities in dpi and different area filling densities. […] Following that the quantity of acetylsalicylic acid applied per unit area was analyzed depending on software controlled printing quality (in dpi). Using the specially plotted graduation curve the required printing densities in dpi were selected for applying 130 mg per 0.25 cm^2, or 520 mg/cm^2. The specimen was dried in a hot air flow for guaranteed removal of the water/alcohol solvent and packaged in a polymer container protecting the specimen from direct sunlight. Then the specimen was removed from the container and placed in a glass with water.
A similar procedure was conducted for d, 1-2-(4-isobutylphenyl)-propionic acid (the active pharmaceutical substance of the Ibuprofen medicine) and a fiberglass membrane made by Algstrem, USA, used in immunology.

[4] = stability of medicine during application with a piezoelectric apparatus (chromatography); settings: heat from piezoelectric apparatus above 40 degrees Celsius
From the text: Initially, at S110, a head 216 of a printing device 208 is dismantled. The head 216 of the printing device 208 may include a plurality of head nozzles 218 operative to dispense a liquid therefrom. The printing device 208 may be a piezoelectric apparatus, or any other suitable apparatus. The printing device 208 may accurately (e.g., within 5% of a nominal range) output a range of drop sizes (e.g., 2-80 picolitres) at a relatively high dispensing frequency (e.g., 1000-3000 drops per second). The printing device 208 may operate based on an inverse piezoelectric effect, whereby a piezoelectric element is deformed under the influence of an electric field. […] In one or more embodiments, the printing device 208 may include a thermo sensor 230 to control the temperature of the head 216 to avoid heating the medicine to a temperature that results in decomposition of the medicine. […] It is noted that the ranges of acceptable temperatures may be analyzed, as cooling may affect viscosity of the medicine. […] The inventors note that, per their research on the use of vitamin C in a piezoelectric apparatus, during application of the medicine to the porous media, heat resulting from the use of the piezoelectric apparatus occurred above 40 degrees Celsius, as vitamin C was destroyed and its presence was not detected during chromatography. […]

- solubility in water/alcohol solutions [1]: ~100%
Structure (SMILES): CC(=O)Oc1ccccc1C(=O)O [acetylsalicylic acid]

- quantity desorbed to potable water ([2]; 1 cm^2 fiberglass membrane (Algstrem), 300±2 mg applied): 246±2
- share of applied quantity desorbed to potable water ([2]; 1 cm^2 fiberglass membrane): 82%
- possible quantity that can be applied on 1 cm^2 (unit area) [3]: 300 ± 2 mg
Structure (SMILES): CC(C)Cc1ccc(C(C)C(=O)O)cc1 (centres unmarked) [d, 1-2-(4-isobutylphenyl)-propionic acid]

- stability during application to porous media with piezoelectric apparatus [4]: destroyed
Structure (SMILES): O=C1O[C@H]([C@@H](O)CO)C(O)=C1O [vitamin C]
